We go through 15 molecules from patent US9855268B2, “Triazolo[4,5-d]pyrimidine derivatives” (Merck Patent GmbH, priority 2013, dated 2018).

For experiment [1], the target named is T1, GCN2 (Homo sapiens, UniProt Q9P2K8). The experiment is described as follows: GCN2 enzyme assay (TR-FRET Lanthascreen, GFP-eIF2alpha phosphorylation). It counts as biochemical. Conditions: 10 μM ATP, 80 nM GFP-eIF2a, 30 nM GCN2. A digest of the protocol:
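Kinase reaction with 10 μM ATP and 80 nM GFP-labelled eIF2alpha substrate at room temperature, stopped with EDTA. Phospho-eIF2alpha detected by TR-FRET between antibody and GFP-substrate, excitation at 340 nm.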
Target sequence in this assay (Q9P2K8 whole entry, species assumed): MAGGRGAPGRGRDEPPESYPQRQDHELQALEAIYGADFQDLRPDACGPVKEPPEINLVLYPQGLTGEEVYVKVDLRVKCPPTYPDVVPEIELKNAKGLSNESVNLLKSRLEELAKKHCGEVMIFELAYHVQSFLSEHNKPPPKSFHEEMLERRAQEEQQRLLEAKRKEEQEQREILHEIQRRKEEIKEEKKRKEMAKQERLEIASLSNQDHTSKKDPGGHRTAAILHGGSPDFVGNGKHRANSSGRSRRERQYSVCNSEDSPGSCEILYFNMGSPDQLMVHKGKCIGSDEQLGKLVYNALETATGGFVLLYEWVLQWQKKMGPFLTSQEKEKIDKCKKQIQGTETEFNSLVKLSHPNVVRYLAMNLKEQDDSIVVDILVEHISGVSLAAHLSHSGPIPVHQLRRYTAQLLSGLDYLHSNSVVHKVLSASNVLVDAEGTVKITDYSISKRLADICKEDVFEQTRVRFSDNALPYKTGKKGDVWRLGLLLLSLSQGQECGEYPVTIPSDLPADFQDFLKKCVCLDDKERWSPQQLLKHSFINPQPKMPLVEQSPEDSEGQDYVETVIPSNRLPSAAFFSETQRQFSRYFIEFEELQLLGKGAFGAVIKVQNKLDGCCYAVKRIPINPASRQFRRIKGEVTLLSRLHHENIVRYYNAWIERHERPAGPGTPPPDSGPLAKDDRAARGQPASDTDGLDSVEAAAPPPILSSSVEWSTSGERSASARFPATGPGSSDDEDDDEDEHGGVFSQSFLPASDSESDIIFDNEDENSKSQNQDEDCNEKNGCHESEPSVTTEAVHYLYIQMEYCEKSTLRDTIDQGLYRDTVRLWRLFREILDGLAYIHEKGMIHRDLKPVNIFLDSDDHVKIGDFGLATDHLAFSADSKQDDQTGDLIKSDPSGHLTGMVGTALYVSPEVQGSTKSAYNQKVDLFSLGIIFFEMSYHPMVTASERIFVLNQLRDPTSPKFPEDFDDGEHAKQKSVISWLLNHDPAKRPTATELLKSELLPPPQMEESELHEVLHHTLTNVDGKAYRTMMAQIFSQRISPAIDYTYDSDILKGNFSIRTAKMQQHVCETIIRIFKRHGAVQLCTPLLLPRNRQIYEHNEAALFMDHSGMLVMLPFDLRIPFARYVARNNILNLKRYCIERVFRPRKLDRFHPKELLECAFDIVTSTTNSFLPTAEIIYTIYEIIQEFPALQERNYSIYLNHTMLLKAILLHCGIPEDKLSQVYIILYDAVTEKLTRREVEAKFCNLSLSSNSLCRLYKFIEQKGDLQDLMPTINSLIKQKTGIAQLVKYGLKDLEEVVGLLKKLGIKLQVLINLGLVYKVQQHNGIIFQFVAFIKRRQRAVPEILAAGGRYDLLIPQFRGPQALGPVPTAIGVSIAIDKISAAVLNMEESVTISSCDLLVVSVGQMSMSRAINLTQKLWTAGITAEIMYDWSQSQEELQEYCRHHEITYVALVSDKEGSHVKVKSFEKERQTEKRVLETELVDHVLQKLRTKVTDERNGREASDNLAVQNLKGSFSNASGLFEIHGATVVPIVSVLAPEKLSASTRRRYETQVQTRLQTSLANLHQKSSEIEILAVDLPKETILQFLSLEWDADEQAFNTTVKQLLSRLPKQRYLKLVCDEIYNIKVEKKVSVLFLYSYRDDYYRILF

The target of the next experiment is GSK3α(h) (Homo sapiens, UniProt P49840). The experiment is described as follows: GSK3α radiometric kinase assay (33P-ATP, phospho GS2 peptide). It counts as biochemical. As to conditions: read-out: IC50 GSK3α (enzyme assay). A digest of the protocol:
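Human GSK3α incubated with 20 μM phospho-GS2 peptide in 8 mM MOPS pH 7,0, 10 mM Mg-acetate and [γ-33P]ATP (concentration as required), started with MgATP. After 40 minutes at room temperature, stopped with phosphoric acid; 33P incorporation measured by filtermat spotting and scintillation counting.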

A further experiment concerns the target GSK3β(h) (Homo sapiens, UniProt P49841). The experiment is described as follows: GSK3β radiometric kinase assay (33P-ATP, phospho GS2 peptide). It counts as biochemical. Conditions: read-out: IC50 GSK3β (enzyme assay). Put shortly:
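Human GSK3β in 8 mM MOPS pH 7,0, 0,2 mM EDTA, 10 mM Mg-acetate with 20 μM phospho-GS2 peptide; the reaction was started with [γ-33P]MgATP at an unstated level. After 40 min at room temperature it was stopped with phosphoric acid, and the peptide was captured on P30 filtermat for scintillation counting.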

The target in experiment [2] is T1, GCN2. The experiment is described as follows: Cellular assay of GCN2 activity (phospho-eIF2alpha immunocytochemistry after tryptophanol). Details: endogenous in cells; host or cells: U2OS. It counts as cell-based. Conditions: Human U2OS cells, 2 h compound, 600 μM tryptophanol 30 min. Put shortly: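 Readout in human U2OS cells: compound pretreatment 2 h, then tryptophanol (600 μM final) for 30 min to trigger GCN2 signalling. Fixed, permeabilised cells quantified by immunocytochemistry for phosphorylation, normalised to DMSO controls as % effect; IC50 from concentration-response.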
Target sequence in this assay (Q9P2K8 whole entry): as the sequence (Q9P2K8 whole entry, species assumed) above

Sequence of GSK3α(h) (P49840 whole entry): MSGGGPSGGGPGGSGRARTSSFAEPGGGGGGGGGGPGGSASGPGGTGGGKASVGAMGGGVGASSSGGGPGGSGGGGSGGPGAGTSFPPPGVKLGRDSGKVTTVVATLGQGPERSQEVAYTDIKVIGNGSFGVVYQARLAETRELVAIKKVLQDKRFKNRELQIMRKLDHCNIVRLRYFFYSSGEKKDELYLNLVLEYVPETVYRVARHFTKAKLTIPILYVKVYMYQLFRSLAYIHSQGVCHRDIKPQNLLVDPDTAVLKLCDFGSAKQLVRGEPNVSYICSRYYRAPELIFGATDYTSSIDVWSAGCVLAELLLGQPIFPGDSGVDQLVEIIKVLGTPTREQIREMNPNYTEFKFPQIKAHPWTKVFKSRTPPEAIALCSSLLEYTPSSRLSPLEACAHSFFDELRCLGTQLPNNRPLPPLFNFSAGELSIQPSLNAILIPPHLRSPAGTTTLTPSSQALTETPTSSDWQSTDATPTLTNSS
Sequence of GSK3β(h) (P49841 whole entry): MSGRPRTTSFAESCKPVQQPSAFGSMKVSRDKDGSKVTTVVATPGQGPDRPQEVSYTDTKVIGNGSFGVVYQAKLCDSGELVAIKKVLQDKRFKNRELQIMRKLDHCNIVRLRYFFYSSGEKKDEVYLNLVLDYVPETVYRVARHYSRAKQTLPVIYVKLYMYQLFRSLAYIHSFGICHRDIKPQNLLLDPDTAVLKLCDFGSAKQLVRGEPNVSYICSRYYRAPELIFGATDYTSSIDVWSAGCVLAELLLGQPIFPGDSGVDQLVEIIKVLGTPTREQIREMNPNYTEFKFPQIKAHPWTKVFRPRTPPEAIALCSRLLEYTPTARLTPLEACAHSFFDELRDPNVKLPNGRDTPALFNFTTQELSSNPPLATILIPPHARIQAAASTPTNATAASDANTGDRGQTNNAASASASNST

In general, IC50 refers to the concentration needed to halve the response being measured. Regarding `O[C@@H]1CC[C@@H](Nc2ncc3nnn(-c4ccc5ncccc5c4)c3n2)C1` [A204, (1R,3R)-3-(3-quinolin-6-yl-3H-[1,2,3]triazolo[4,5-d]pyrimidin-5-ylamino)-cyclopentanol], the IC50 is below 1 µM on GCN2 [1], below 1 µM on GSK3α(h), below 1 µM at GSK3β(h) and 1 to 5 µM against GCN2 [2].

For the molecule `CCOCCn1cc(-c2ccc(-n3nnc4cnc(N[C@@H]5CC[C@@H](C(N)=O)C5)nc43)cc2)cn1` [A211, (1R,3R)-3-(3-{4-[1-(2-ethoxy-ethyl)-1H-pyrazol-4-yl]-phenyl}-3H-[1,2,3]triazolo[4,5-d]pyrimidin-5-ylamino)-cyclopentanecarboxylic acid amide], the IC50 is below 1 µM against GCN2 [1], below 1 µM at GSK3α(h), below 1 µM on GSK3β(h) and 5 to 10 µM against GCN2 [2].

Consider `COCCn1cc(-c2ccc(-n3nnc4cnc(N[C@@H]5CC[C@@H](O)C5)nc43)cc2)cn1` [A212, (1R,3R)-3-(3-{4-[1-(2-methoxy-ethyl)-1H-pyrazol-4-yl]-phenyl}-3H-[1,2,3]triazolo[4,5-d]pyrimidin-5-ylamino)-cyclopentanol], for which the IC50 against GCN2 [1] is below 1 µM; on GSK3α(h) it was below 1 µM; on GSK3β(h), below 1 µM; against GCN2 [2], 1 to 5 µM.

In the case of `COCCn1cc(-c2ccc(-n3nnc4cnc(N[C@@H]5CC[C@@H](C(N)=O)C5)nc43)cc2)cn1` [A218, (1R,3R)-3-(3-{4-[1-(2-methoxy-ethyl)-1H-pyrazol-4-yl]-phenyl}-3H-[1,2,3]triazolo[4,5-d]pyrimidin-5-ylamino)-cyclopentanecarboxylic acid amide], the concentration for half-maximal inhibition (IC50) at GCN2 [1], on GSK3α(h), at GSK3β(h) and on GCN2 [2] was below 1 µM throughout.

Consider `Cc1nc(CCn2cc(-c3ccc(-n4nnc5cnc(N[C@@H]6CC[C@@H](C(N)=O)C6)nc54)cc3)cn2)no1` [A220, (1R,3R)-3-[3-(4-{1-[2-(5-methyl-[1,2,4]oxadiazol-3-yl)-ethyl]-1H-pyrazol-4-yl}-phenyl)-3H-[1,2,3]triazolo[4,5-d]pyrimidin-5-ylamino]-cyclopentanecarboxylic acid amide], for which the IC50 against GCN2 [1], on GSK3α(h), at GSK3β(h) and on GCN2 [2] was below 1 µM each time.

On to `COCCn1cc(-c2ccc(-n3nnc4cnc(N[C@@H]5CC[C@@H](C(N)=O)C5)nc43)cc2F)cn1` [A221, (1R,3R)-3-(3-{3-fluoro-4-[1-(2-methoxy-ethyl)-1H-pyrazol-4-yl]-phenyl}-3H-[1,2,3]triazolo[4,5-d]pyrimidin-5-ylamino)-cyclopentanecarboxylic acid amide], for which the 50% inhibitory concentration (IC50) on GCN2 [1] is below 1 µM; on GSK3α(h), below 1 µM; on GSK3β(h), below 1 µM; at GCN2 [2], 1 to 5 µM.

For `CCOCCn1cc(-c2ccc(-n3nnc4cnc(N[C@@H]5CC[C@@H](C(N)=O)C5)nc43)cc2F)cn1` [A223, (1R,3R)-3-(3-{4-[1-(2-ethoxy-ethyl)-1H-pyrazol-4-yl]-3-fluoro-phenyl}-3H-[1,2,3]triazolo[4,5-d]pyrimidin-5-ylamino)-cyclopentanecarboxylic acid amide], the IC50 against GCN2 [1], at GSK3α(h), on GSK3β(h) and on GCN2 [2] was below 1 µM each time.

`COCCn1cc(-c2ccc(-n3nnc4cnc(N[C@@H]5CC[C@@H](C(N)=O)C5)nc43)cn2)cn1` [A224, (1R,3R)-3-(3-{6-[1-(2-methoxy-ethyl)-1H-pyrazol-4-yl]-pyridin-3-yl}-3H-[1,2,3]triazolo[4,5-d]pyrimidin-5-ylamino)-cyclopentanecarboxylic acid amide]: the concentration for half-maximal inhibition (IC50) against GCN2 [1] is below 1 µM; on GSK3α(h) it was below 1 µM; at GSK3β(h), below 1 µM; against GCN2 [2], 5 to 10 µM.

As for `CCOCCn1cc(-c2ccc(-n3nnc4cnc(N[C@@H]5CC[C@@H](C(=O)NCCOC)C5)nc43)cc2)cn1` [A225, (1R,3R)-3-(3-{4-[1-(2-ethoxy-ethyl)-1H-pyrazol-4-yl]-phenyl}-3H-[1,2,3]triazolo[4,5-d]pyrimidin-5-ylamino)-cyclopentanecarboxylic acid (2-methoxy-ethyl)-amide], the IC50 on GCN2 [1] was below 1 µM; at GSK3α(h), below 1 µM; at GSK3β(h), below 1 µM; against GCN2 [2], 1 to 5 µM.

As to `CCOCCn1cc(-c2ccc(-n3nnc4cnc(N[C@@H]5CC[C@@H](C(=O)NCCO)C5)nc43)cc2)cn1` [A226, (1R,3R)-3-(3-{4-[1-(2-ethoxy-ethyl)-1H-pyrazol-4-yl]-phenyl}-3H-[1,2,3]triazolo[4,5-d]pyrimidin-5-ylamino)-cyclopentanecarboxylic acid (2-hydroxy-ethyl)-amide], the IC50 against GCN2 [1] was below 1 µM; at GSK3α(h), below 1 µM; on GSK3β(h), below 1 µM; against GCN2 [2] it was 1 to 5 µM.

As to `CCOCCn1cc(-c2ccc(-n3nnc4cnc(N[C@@H]5CC[C@@H](O)C5)nc43)cc2)cn1` [A227, (1R,3R)-3-(3-{4-[1-(2-ethoxy-ethyl)-1H-pyrazol-4-yl]-phenyl}-3H-[1,2,3]triazolo[4,5-d]pyrimidin-5-ylamino)-cyclopentanol], the IC50 is below 1 µM on GCN2 [1], below 1 µM on GSK3α(h), below 1 µM on GSK3β(h) and 1 to 5 µM against GCN2 [2].

As for `COCCn1cc(-c2ccc(-n3nnc4cnc(N[C@@H]5CC[C@@H](O)C5)nc43)cc2F)cn1` [A228, (1R,3R)-3-(3-{3-fluoro-4-[1-(2-methoxy-ethyl)-1H-pyrazol-4-yl]-phenyl}-3H-[1,2,3]triazolo[4,5-d]pyrimidin-5-ylamino)-cyclopentanol], the IC50 against GCN2 [1] is below 1 µM; on GSK3α(h), below 1 µM; at GSK3β(h), below 1 µM; against GCN2 [2], 5 to 10 µM.

For the molecule `COCCn1cc(-c2ccc(-n3nnc4cnc(N[C@@H]5CC[C@@H](C(N)=O)C5)nc43)cc2C)cn1` [A230, (1R,3R)-3-(3-{4-[1-(2-methoxy-ethyl)-1H-pyrazol-4-yl]-3-methyl-phenyl}-3H-[1,2,3]triazolo[4,5-d]pyrimidin-5-ylamino)-cyclopentanecarboxylic acid amide], the IC50 on GCN2 [1] is below 1 µM; at GSK3α(h) it was below 1 µM; on GSK3β(h), below 1 µM; on GCN2 [2], 1 to 5 µM.

Regarding `CC(C)(O)Cn1cc(-c2ccc(-n3nnc4cnc(N[C@@H]5CC[C@@H](O)C5)nc43)cc2)cn1` [A232, (1R,3R)-3-(3-{4-[1-(2-hydroxy-2-methyl-propyl)-1H-pyrazol-4-yl]-phenyl}-3H-[1,2,3]triazolo[4,5-d]pyrimidin-5-ylamino)-cyclopentanol], the 50% inhibitory concentration (IC50) against GCN2 [1] was below 1 µM; on GSK3α(h) it was below 1 µM; on GSK3β(h), below 1 µM; at GCN2 [2], 5 to 10 µM.

As to `COCCn1cc(-c2ccc(-n3nnc4cnc(N[C@@H]5CC[C@@H](C(=O)NCC6CCN(C)CC6)C5)nc43)cc2)cn1` [A235, (1R,3R)-3-(3-{4-[1-(2-methoxy-ethyl)-1H-pyrazol-4-yl]-phenyl}-3H-[1,2,3]triazolo[4,5-d]pyrimidin-5-ylamino)-cyclopentanecarboxylic acid (1-methyl-piperidin-4-ylmethyl)-amide], the concentration for half-maximal inhibition (IC50) was below 1 µM against GCN2 [1], below 1 µM at GSK3α(h), below 1 µM at GSK3β(h) and 1 to 5 µM on GCN2 [2].
